Reference: patent US8481263B2, “Bead-ligand-nascent protein complexes” (Ambergen, priority 2007, dated 2013)

Target: T1, PKCα (Homo sapiens, UniProt P17252)
T1 construct: isolate and photo-release endogenous PKCa from the undiluted detergent fractionated HeLa cell extracts; endogenous in cells; host or cells: HeLa cells (ATCC)
Experiment: PKCα sub-cellular translocation measured by kinase activity after photocleavable antibody isolation
Assay type: cell-based
Conditions: cultured HeLa cells stimulated with 200 nM PMA for 5 min; detergent fractionated; kinase activity of PC-antibody isolated PKCα; n=4
Protocol: Cultured HeLa cells (ATCC; Manassas, Va.) were stimulated for 5 min with 200 nM Phorbol-12-Myristate-13-Acetate (PMA; EMD Biosciences, Inc., San Diego, Calif.) and subsequently detergent fractionated into sub-cellular compartments according to reported procedures [Ramsby et al. (1994) Electrophoresis 15, 265-277; Ramsby & Makowski. (1999) Methods Mol Biol 112, 53-66; Chiang et al. (2000) J Biochem Biophys Methods 46, 53-68]. PMA is a potent activator of PKCα and is well known to cause translocation of the kinase from the cytosolic to the membrane sub-cellular compartments [Ross & Joyner. (1997) Endothelium 5, 321-332; Bazan & Rapoport. (1996) J Pharmacol Toxicol Methods 36, 87-95; Yazlovitskaya & Melnykovych. (1995) Cancer Lett 88, 179-183].
A photocleavable antibody conjugated solid affinity matrix was prepared and used to isolate and photo-release the antigen into solution essentially as described in Example 2 except that in this case, a photocleavable anti-IgG secondary antibody was used to immobilize the unlabeled primary antibody onto the solid affinity matrix. This antibody affinity matrix was used to isolate and photo-release endogenous PKCa from the undiluted detergent fractionated HeLa cell extracts. […]

In the case of CCCCCCCCCCCCCC(=O)O[C@@H]1[C@@H](C)[C@@]2(O)[C@@H](C=C(CO)C[C@]3(O)C(=O)C(C)=C[C@@H]23)[C@@H]2C(C)(C)[C@]12OC(C)=O [PMA, Phorbol-12-Myristate-13-Acetate], the “PKCα distribution, cytosol” value is reported as 16±4% and the “PKCα distribution, membrane” value is reported as 84±3%.
